# Patent US20210330611A1, “THERAPY FOR NEUROLOGICAL DISEASES/DISORDERS” (priority 2020, published 2021)
# “And” between values parts separate entries of the source, which are not always exact repeats. Equal values may be shown once. Where a name gives a salt, the structure may show the parent alone. Read-outs that look alike come from different tables or passages of the source.
# Experiments:
# [1] = test system: fibrin- and LPS-induced microglia activation; assay: cells; format: cell-based, rat; settings: for inhibition at 10 µM: Rattus norvegicus, Microglia
# [2] = test system: primary rat microglia; assay: Cell toxicity (dead cells, size <150 μm2) in LPS assay
# [3] = test system: primary rat microglia; assay: Cell toxicity (dead cells, size <150 μm2) in coated fibrin (cFib) assay;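 note: share of dead cells sized under 150 µm2 at 10 µM in fibrin-stimulated microglia HTS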
# [4] = test system: fibrin-induced microglia activation; assay: Image-based assay of fibrin-induced microglia activation (HTS and dose response); format: cell-based, rat; settings: for IC50 / inhibition at 10 µM: Rattus norvegicus, Microglia; for inhibition at 10 µM: read-out: Fibrin % inhibition
# [5] = test system: LPS-induced microglia activation; assay: Image-based assay of LPS-induced microglia activation (HTS and dose response); format: cell-based, rat; settings: for IC50 / inhibition at 10 µM: Rattus norvegicus, Microglia; for inhibition at 10 µM: read-out: LPS % inhibition
# [6] = test system: primary rat microglia
# [7] = quadrant by fibrin and LPS inhibition in HTS of 1907 compounds
# [8] = primary microglia HTS, LPS stimulation, toxicity = cell size <150 μm2
# [9] = primary microglia HTS, fibrin stimulation, toxicity = cell size <150 μm2
# [10] = primary microglia HTS, 10 μM, fibrin-stimulated, cell size >800 μm^2 as marker of activation
# [11] = HTS of 1907 compounds, quadrant by fibrin and LPS inhibition
# [12] = primary microglia HTS, 10 μM, LPS assay, cell size <150 μm^2 as marker of toxicity
# [13] = primary microglia HTS, 10 μM, LPS-stimulated, cell size >800 μm^2 as marker of activation
# [14] = primary microglia HTS, LPS stimulation, decreased size (<150 μm^2) as marker of toxicity
# [15] = primary microglia HTS, fibrin stimulation, decreased size (<150 μm^2) as marker of toxicity
# [16] = primary microglia HTS, fibrin stimulation, activation = cell size >800 μm2
# [17] = primary microglia HTS, LPS stimulation, activation = cell size >800 μm2
# [18] = primary HTS, 10 μM, LPS assay, dead cells size <150 μm2
# [19] = primary microglia HTS, 10 μM, fibrin assay, cell size <150 μm^2 as marker of toxicity
# [20] = primary microglia HTS, fibrin stimulation, compounds at 10 μM
# [21] = quadrant by fibrin and LPS inhibition, HTS at 10 μM
# [22] = primary microglia HTS, fibrin assay, dead cells (size <150 μm2)
# [23] = primary microglia HTS, LPS stimulation, compounds at 10 μM
# [24] = primary microglia HTS, fibrin stimulation, cell size >800 μm2 as marker of activation
# [25] = classification by fibrin and LPS inhibition in HTS
# [26] = primary microglia HTS, fibrin stimulation, cell size <150 μm2 as marker of toxicity
# [27] = classification by fibrin and LPS inhibition, HTS at 10 μM
# [28] = primary microglia HTS, fibrin assay, dead cells (size <150 μm2), compounds at 10 μM
compound,measurement,setting,value
CCCCCN(C)CCC(O)(P(=O)(O)O)P(=O)(O)O [Ibandronate],Quadrant (FIG. 5b),[1]; [7],Q4
same,LPS % cell toxicity,[2]; [8],0%
same,Fibrin % cell toxicity,[3]; [9],0% and 1%
Oc1ccc(C2CNCCc3c2cc(O)c(O)c3Cl)cc1 (stereo not drawn) [Fenoldopam],Quadrant (FIG. 5b),[1]; [7],Q4
same,LPS % cell toxicity,[2]; [8],0%
same,Fibrin % cell toxicity,[3]; [9],1% and 0%
Nc1ccn([C@@H]2CS[C@H](CO)O2)c(=O)n1 [Lamivudine],Quadrant (FIG. 5b),[1]; [7],Q4
same,LPS % cell toxicity,[2]; [8],0%
same,Fibrin % cell toxicity,[3]; [9],1%
CC[C@H]1OC(=O)C[C@@H](O)[C@H](C)[C@@H](O[C@@H]2O[C@H](C)[C@@H](O[C@H]3C[C@@](C)(O)[C@@H](O)[C@H](C)O3)[C@H](N(C)C)[C@H]2O)[C@@H](CC=O)C[C@@H](C)C(=O)/C=C/C(C)=C/[C@@H]1CO[C@@H]1O[C@H](C)[C@@H](O)[C@@H](OC)[C@H]1OC.O=C(O)C(O)C(O)C(=O)O [Tylosin Tartrate],Fibrin % inhibition,[4]; [10],9%
same,Quadrant (FIG. 5b),[1]; [11],Q4
same,LPS % cell toxicity,[2]; [12],0%
same,LPS % inhibition,[5]; [13],11%
C[N+]1(C)[C@@H]2C[C@@H](OC(=O)[C@H](CO)c3ccccc3)C[C@H]1[C@@H]1O[C@@H]12 [Methscopolamine Bromide],Quadrant (FIG. 5b),[1]; [7],Q4
same,LPS % cell toxicity,[2]; [14],0%
same,Fibrin % cell toxicity,[3]; [15],1%
OCCOCCN1CCN(C(c2ccccc2)c2ccc(Cl)cc2)CC1 (stereo not drawn) [Hydroxyzine],Quadrant (FIG. 5b),[1]; [7],Q4
same,LPS % cell toxicity,[2]; [8],0%
same,Fibrin % cell toxicity,[3]; [9],0% and 1%
CC(=O)[C@@]1(O)CC[C@H]2[C@@H]3CCC4=CC(=O)CC[C@]4(C)[C@H]3CC[C@@]21C [Hydroxyprogesterone],Fibrin % inhibition,[4]; [16],9%
same,Quadrant (FIG. 5b),[1]; [7],Q4
same,LPS % cell toxicity,[2]; [8],1%
same,LPS % inhibition,[5]; [17],33%
CN(C)CC/C=C1/c2ccccc2Sc2ccc(Cl)cc21 [Chlorprothixene],Quadrant (FIG. 5b),"[1]; primary HTS, 10 μM",Q4
same,LPS % cell toxicity,[2]; [18],1% and 0%
same,Fibrin % cell toxicity,"[3]; primary HTS, 10 μM, fibrin assay, dead cells size <150 μm2",1%
CCNC1(c2cccs2)CCCCC1=O.Cl (stereo not drawn) [Tiletamine Hydrochloride],Fibrin % inhibition,[4]; [10],8%
same,Quadrant (FIG. 5b),[1]; [11],Q4
same,LPS % cell toxicity,[2]; [12],0%
same,LPS % inhibition,[5]; [13],22%
COc1cccc(C2(O)CCCCC2CN(C)C)c1 (stereo not drawn) [Tramadol],Quadrant (FIG. 5b),[1]; [11],Q4
same,LPS % cell toxicity,[2]; [12],0%
same,Fibrin % cell toxicity,[3]; [19],1%
"CCN(CC)C(=O)C1(c2ccccc2)CC1CN (stereo not drawn) [Milnacipran hydrochloride, reference compound]",IC50,"[4]; 48 h, Table 1, dose response 0.001-20 μM, triplicates, primary rat microglia, 48 h, read-out: Fibrin IC50",8 µM
same,IC50,"[4]; Table 3, read-out: Fibrin IC50 (uM) (Suppl. Table 7)",8 µM
same,IC50,"[4]; dose response, fibrin-induced microglia activation, read-out: Fibrin IC50",8 µM
same,IC50,"[4]; fibrin-induced microglia activation, dose response, read-out: Fibrin IC50 (uM) (Suppl. Table 7)",8 µM
same,inhibition at 10 µM,"[4]; primary microglia HTS, fibrin stimulation, increased cell size (>800 μm^2) as marker of activation",72%
same,Quadrant (FIG. 5b),[1]; [11],Q3
same,inhibition at 10 µM,"[1]; Table 3, read-out: Cherry-picked Hit (Suppl. Table 7)",> 50%
same,inhibition at 10 µM,"[1]; HTS hit classification, read-out: Hit",> 50%
same,Quadrant (FIG. 5b),"[1]; Table 1, screen at 10 μM",Q3
same,Quadrant (FIG. 5b),"[1]; Table 3, screen at 10 μM",Q3
same,Quadrant (FIG. 5b),[1]; [7],Q3
same,LPS % cell toxicity,[2]; [14],1%
same,IC50,"[5]; 48 h, Table 1, dose response 0.001-20 μM, triplicates, primary rat microglia, 48 h, read-out: LPS IC50",20 µM
same,inhibition at 10 µM,"[5]; 48 h, primary microglia HTS, LPS stimulation, increased cell size (>800 μm^2) as marker of activation",31%
same,IC50,"[5]; LPS-induced microglia activation, dose response, read-out: LPS IC50 (uM) (Suppl. Table 7)",20 µM
same,IC50,"[5]; Table 3, read-out: LPS IC50 (uM) (Suppl. Table 7)",20 µM
same,IC50,"[5]; dose response, LPS-induced microglia activation, read-out: LPS IC50",20 µM
CC(C)N1CCN(c2ccc(OCC3COC(Cn4cncn4)(c4ccc(Cl)cc4Cl)O3)cc2)CC1 (stereo not drawn) [Terconazole],Quadrant (FIG. 5b),[1]; [11],Q4
same,LPS % cell toxicity,[2]; [12],0%
same,Fibrin % cell toxicity,[3]; [19],1%
N=C(N)NC(=O)Cc1c(Cl)cccc1Cl [Guanfacine],Quadrant (FIG. 5b),[1]; [7],Q4
same,LPS % cell toxicity,[2]; [8],0%
same,Fibrin % cell toxicity,[3]; [9],1%
COc1cccc(C2(O)CCCCC2CN(C)C)c1 (stereo not drawn) [Tramadol Hydrochloride],LPS % cell toxicity,[2]; [12],0%
same,Fibrin % cell toxicity,[3]; [19],0%
CN(C)[C@@H]1C(=O)C(C(N)=O)=C(O)[C@@]2(O)C(=O)C3=C(O)c4c(O)ccc(Cl)c4[C@@](C)(O)[C@H]3C[C@@H]12,Fibrin % inhibition,"[4]; primary HTS, 10 μM, fibrin-stimulated primary microglia",27%
same,Quadrant (FIG. 5b),"[1]; primary HTS, 10 μM",Q4
same,LPS % cell toxicity,[2]; [18],0%
same,LPS % inhibition,"[5]; primary HTS, 10 μM, LPS-stimulated primary microglia",23%
NC[C@H](O)c1ccc(O)c(O)c1 [Norepinephrine],Quadrant (FIG. 5b),[1]; [7],Q4
same,LPS % cell toxicity,[2]; [14],0%
same,Fibrin % cell toxicity,[3]; [15],1%
O=[N+]([O-])O[C@H]1CO[C@H]2[C@@H]1OC[C@H]2O[N+](=O)[O-] [Isosorbide Dinitrate],LPS % cell toxicity,[2]; [8],0%
same,Fibrin % cell toxicity,[3]; [9],0%
C[C@@H]1[C@H](O)[C@@H](C)/C=C/C=C/CC/C=C/C=C/C=C/C=C/C(O[C@H]2O[C@H](C)[C@@H](O)[C@H](N)[C@@H]2O)CC2O[C@](O)(CC(O)C(O)CCC(O)CC(O)CC(O)CC(=O)O[C@H]1C)CC(O)C2C(=O)O (stereo partly drawn) [Nystatin],Quadrant (FIG. 5b),[1]; [7],Q4
same,LPS % cell toxicity,[2]; [14],1%
same,Fibrin % cell toxicity,[3]; [15],0% and 1%
C[C@@H](O[C@H]1OCCN(Cc2n[nH]c(=O)[nH]2)[C@H]1c1ccc(F)cc1)c1cc(C(F)(F)F)cc(C(F)(F)F)c1 [Aprepitant],inhibition at 10 µM,[4]; [20],20%
same,Quadrant (FIG. 5b),[1]; [21],Q4
same,LPS % cell toxicity,[6]; rat,0%
same,Fibrin % cell toxicity,[3]; [22],1%
same,inhibition at 10 µM,[5]; [23],1%
CCOc1ccc(NC(C)=O)cc1 [Phenacetin],inhibition at 10 µM,[4]; [24],-5%
same,Quadrant (FIG. 5b),[1]; [25],Q4
same,LPS % cell toxicity,[6]; rat,0%
same,Fibrin % cell toxicity,[3]; [26],1%
same,inhibition at 10 µM,[5]; 48 h,16%
"Nc1cc(-c2ccncc2)c[nH]c1=O [Amrinone, Inamrinone]",Fibrin % inhibition,[4]; [20],1%
same,Quadrant (FIG. 5b),[1]; [21],Q4
same,LPS % cell toxicity,[6],0%
same,Fibrin % cell toxicity,[3]; [22],1%
same,LPS % inhibition,[5]; [23],18%
Acetophenazine Maleate,Fibrin % inhibition,[4]; [20],34%
same,Quadrant (FIG. 5b),[1]; [21],Q4
same,LPS % cell toxicity,[6],0%
same,Fibrin % cell toxicity,[3]; [22],1%
same,LPS % inhibition,[5]; [23],15%
CC[N+](CC)(CC(=O)Nc1c(C)cccc1C)Cc1ccccc1 [Denatonium Benzoate],inhibition at 10 µM,[4]; [20],2%
same,Quadrant (FIG. 5b),[1]; [27],Q4
same,LPS % cell toxicity,[6]; rat,0%
same,Fibrin % cell toxicity,[3]; [28],0%
same,inhibition at 10 µM,[5]; [23],12%
Clc1ccc(C(Cn2ccnc2)OCc2csc3c(Cl)cccc23)c(Cl)c1 (stereo not drawn) [Sertaconazole],inhibition at 10 µM,[4]; [24],-25%
same,Quadrant (FIG. 5b),[1]; [25],Q4
same,LPS % cell toxicity,[6]; rat,0%
same,Fibrin % cell toxicity,[3]; [26],1%
same,inhibition at 10 µM,[5]; 48 h,11%
"Br.COc1ccc2c3c1O[C@H]1C[C@@H](O)C=C[C@@]31CCN(C)C2 [Galanthamine Hydrobromide, Galantamine]",Fibrin % inhibition,[4]; [16],10%
same,Quadrant (FIG. 5b),[1]; [7],Q4
same,LPS % cell toxicity,[2]; [8],0%
same,LPS % inhibition,[5]; [17],9%
CCN(CCCc1ccccc1)CCCc1ccccc1 [Alverine],inhibition at 10 µM,[4]; [20],-17%
same,Quadrant (FIG. 5b),[1]; [21],Q4
same,LPS % cell toxicity,[6]; rat,0%
same,Fibrin % cell toxicity,[3]; [22],0%
same,inhibition at 10 µM,[5]; [23],6%
CC(C)N(CCC(C(N)=O)(c1ccccc1)c1ccccn1)C(C)C (stereo not drawn) [Disopyramide],inhibition at 10 µM,[4]; [20],-13%
same,Quadrant (FIG. 5b),[1]; [27],Q4
same,LPS % cell toxicity,[6]; rat,0%
same,Fibrin % cell toxicity,[3]; [28],1%
same,inhibition at 10 µM,[5]; [23],1%
CC1CC(OC(=O)C(O)c2ccccc2)CC(C)(C)N1C (stereo not drawn) [Eucatropine Hydrochloride],inhibition at 10 µM,[4]; [20],1%
same,Quadrant (FIG. 5b),[1]; [27],Q4
same,LPS % cell toxicity,[6]; rat,0%
same,Fibrin % cell toxicity,[3]; [28],1%
same,inhibition at 10 µM,[5]; [23],24%
CN1CCN(c2cc3c(cc2F)c(=O)c(C(=O)O)cn3-c2ccc(F)cc2)CC1 [Difloxacin Hydrochloride],inhibition at 10 µM,[4]; [20],25%
same,Quadrant (FIG. 5b),[1]; [27],Q4
same,LPS % cell toxicity,[6]; rat,1%
same,Fibrin % cell toxicity,[3]; [28],1%
same,inhibition at 10 µM,[5]; [23],33%
CN1C(=O)CC(c2ccccc2)C1=O (stereo not drawn) [Phensuximide],inhibition at 10 µM,[4]; [24],-7%
same,Quadrant (FIG. 5b),[1]; [25],Q4
same,LPS % cell toxicity,[6]; rat,0%
same,Fibrin % cell toxicity,[3]; [26],1%
same,inhibition at 10 µM,[5]; 48 h,4%
